Results on one compound are retold here after patent US7833551B2, “Inhibition of biogenic sulfide production via biocide and metabolic inhibitor combination” (ConocoPhillips Company, priority 2004, dated 2010).

The test system of this assay is sulfate-reducing bacterial (SRB) consortium. Nature of the assay: Inhibition of sulfate reduction and sulfide production in SRB cultures for one month (MIC and biocide/metabolic inhibitor combinations). Type of assay: cell-based, sulfate-reducing bacteria (Coleville SRB enrichment). The following applies: 720 h; minimum concentration necessary to prevent sulfide production by SRB for 30 days after contact; compound alone; certain test conditions; read-out: minimum inhibitory concentration (MIC).

Procedure: The sulfate-reducing bacterial (SRB) consortium used in this study was enriched from produced water obtained from the Coleville oil field near Kindersely, Sadkatchewan, Canada. […] The SRB consortium was maintained by weekly transfer in sPGC medium, and incubated at 30° C. […] The sPGC contained the following components per 1 liter of distilled water: 7 g NaCl; 1.2 g MgCl26H2O; 0.5 g KH2PO4; 1 g NH4Cl; 4.5 g Na2SO4; 0.042 g CaCl22H2O; 0.03 g MgSO47H2O; 0.004 g FeSO47H2O; 0.28 g sodium citrate; 10 g 60% sodium lactate; 1 g yeast extract; and a trace amount of rezazurin.
The cultures used in this study were grown in 100 mL of modified Coleville synthetic brine medium (mCSB) in 160-ml serum bottles, with a headspace of 5% H2, 10% CO2 balance N2. […]
Sulfate was measured using the turbidimetric method described in: American Public Health Association, Standard Methods for the Examination of Water and Wastewater. […]
For each biocide and metabolic inhibitor tested, the minimum inhibitory concentration (MIC; the minimum amount of biocide required to inhibit sulfate reduction and sulfide production in the SRB culture for one month) was determined.

As for `O=CCCCC=O` [glutaraldehyde], the MIC was 5 mM.
